#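 Grown in 96-well plates, cells were treated for 48 hours with each compound at five concentrations. Insufficient inhibition: endpoint recorded as highest concentration tested. The concentration for 50% growth inhibition is given as GI50.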 Active and inactive are the calls of the source. Cut-off read from the data, not from the text of the source: active = GI50 up to about 1.1 µM and inactive = higher.
# Key:
# Assay in all cases: growth of human tumour cells (NCI), 48 h
# [1] = system: 786-0
# [2] = system: MOLT-4
# [3] = system: CAKI-1
# [4] = system: XF498
# [5] = system: U-251
# [6] = system: UACC-257
# [7] = system: Malme-3M
# [8] = system: SF-295
# [9] = system: SK-MEL-28
# [10] = system: OVCAR-4
# [11] = system: SW-620
# [12] = system: HT-29
# [13] = system: HCC 2998
# [14] = system: A498
# [15] = system: SK-MEL-5
# [16] = system: RXF 631
# [17] = system: HCT-15
# [18] = system: HOP-92
# [19] = system: SN12C
# [20] = system: SF-539
# [21] = system: OVCAR-5
# [22] = system: UO-31
# [23] = system: DMS-273
# [24] = system: UACC-62
# [25] = system: NCI-H23
# [26] = system: LXFL 529
# [27] = system: OVCAR-8
# [28] = system: DLD-1
# [29] = system: TK-10
# [30] = system: A549
# [31] = system: OVCAR-3
# [32] = system: EKVX
# [33] = system: COLO 205
# [34] = system: NCI-H522
# [35] = system: NCI-H226
# [36] = system: HCT-116
# [37] = system: HL-60
# [38] = system: RPMI-8226
# [39] = system: KM-20L2
# [40] = system: SK-OV-3
# [41] = system: IGROV-1
# [42] = system: M14
# [43] = system: HOP-62
# [44] = system: SNB-19
# [45] = system: ACHN
# [46] = system: CCRF-CEM
# [47] = system: M19-MEL
# [48] = system: SF-268
# [49] = system: KM12
# [50] = system: K562
# [51] = system: SK-MEL-2
# [52] = system: SNB-75
# [53] = system: DMS-114
# [54] = system: RXF 393
# [55] = system: SR
# [56] = system: NCI-H460
smiles,measurement,setting,value
O=C1C2=C(c3ccccc31)C(c1ccc(Cl)cc1)N1C(=O)CCSC1=N2 (centres undefined),GI50,[1],> 100 µM (inactive)
same,GI50,[2],41.8 µM (inactive)
same,GI50,[3],> 100 µM (inactive)
same,GI50,[4],41.3 µM (inactive)
same,GI50,[5],> 100 µM (inactive)
same,GI50,[6],> 100 µM (inactive)
same,GI50,[7],89.3 µM (inactive)
same,GI50,[8],99.3 µM (inactive)
same,GI50,[9],> 100 µM (inactive)
same,GI50,[10],36.1 µM (inactive)
same,GI50,[11],63.1 µM (inactive)
same,GI50,[12],> 100 µM (inactive)
same,GI50,[13],> 100 µM (inactive)
same,GI50,[14],> 100 µM (inactive)
same,GI50,[15],47.9 µM (inactive)
same,GI50,[16],> 100 µM (inactive)
same,GI50,[17],67.8 µM
same,GI50,[18],31.4 µM (inactive)
same,GI50,[19],44.6 µM (inactive)
same,GI50,[20],> 100 µM (inactive)
same,GI50,[21],> 100 µM (inactive)
same,GI50,[22],42.9 µM (inactive)
same,GI50,[23],> 100 µM (inactive)
same,GI50,[24],54.3 µM (inactive)
same,GI50,[25],76.7 µM (inactive)
same,GI50,[26],53.2 µM (inactive)
same,GI50,[27],> 10 µM (inactive)
same,GI50,[28],> 100 µM (inactive)
same,GI50,[29],> 100 µM (inactive)
same,GI50,[30],69.3 µM (inactive)
same,GI50,[31],84.3 µM (inactive)
same,GI50,[32],68.2 µM (inactive)
same,GI50,[33],> 100 µM (inactive)
same,GI50,[34],45.5 µM (inactive)
same,GI50,[35],51.8 µM (inactive)
same,GI50,[36],69.2 µM (inactive)
same,GI50,[37],34.8 µM (inactive)
same,GI50,[38],39 µM (inactive)
same,GI50,[39],> 100 µM (inactive)
same,GI50,[40],> 100 µM (inactive)
same,GI50,[41],98.6 µM (inactive)
same,GI50,[42],> 100 µM (inactive)
same,GI50,[43],> 100 µM (inactive)
same,GI50,[44],> 100 µM (inactive)
same,GI50,[45],> 100 µM (inactive)
same,GI50,[46],51.1 µM (inactive)
same,GI50,[47],> 100 µM (inactive)
same,GI50,[48],> 100 µM (inactive)
same,GI50,[49],99.5 µM (inactive)
same,GI50,[50],81.1 µM (inactive)
same,GI50,[51],> 100 µM (inactive)
same,GI50,[52],43.2 µM (inactive)
same,GI50,[53],67.6 µM (inactive)
O=C(Nc1c(Cl)cc([N+](=O)[O-])cc1Cl)/C(=N\Nc1cccc(Cl)c1)c1c(O)c2ccccc2oc1=O,GI50,[1],> 100 µM (inactive)
same,GI50,[2],> 100 µM (inactive)
same,GI50,[6],> 100 µM (inactive)
same,GI50,[7],> 100 µM (inactive)
same,GI50,[8],> 100 µM (inactive)
same,GI50,[9],> 100 µM (inactive)
same,GI50,[10],> 100 µM (inactive)
same,GI50,[11],> 100 µM (inactive)
same,GI50,[12],> 100 µM (inactive)
same,GI50,[13],> 100 µM (inactive)
same,GI50,[14],21.2 µM (inactive)
same,GI50,[15],> 100 µM (inactive)
same,GI50,[54],66.2 µM (inactive)
same,GI50,[16],53.6 µM (inactive)
same,GI50,[19],34.2 µM (inactive)
same,GI50,[20],> 100 µM (inactive)
same,GI50,[21],31.3 µM (inactive)
same,GI50,[22],23.6 µM (inactive)
same,GI50,[24],89.5 µM (inactive)
same,GI50,[25],62.7 µM (inactive)
same,GI50,[27],> 100 µM (inactive)
same,GI50,[28],42.9 µM (inactive)
same,GI50,[55],78.7 µM (inactive)
same,GI50,[29],> 100 µM (inactive)
same,GI50,[30],> 100 µM (inactive)
same,GI50,[31],> 100 µM (inactive)
same,GI50,[32],26.4 µM (inactive)
same,GI50,[33],> 100 µM (inactive)
same,GI50,[34],39.9 µM (inactive)
same,GI50,[36],56.1 µM (inactive)
same,GI50,[37],71.9 µM (inactive)
same,GI50,[56],> 100 µM (inactive)
same,GI50,[38],50 µM (inactive)
same,GI50,[39],> 100 µM (inactive)
same,GI50,[40],> 100 µM (inactive)
same,GI50,[41],> 100 µM (inactive)
same,GI50,[43],74 µM (inactive)
same,GI50,[44],87.1 µM (inactive)
same,GI50,[45],49.2 µM (inactive)
same,GI50,[46],75.2 µM (inactive)
same,GI50,[47],> 100 µM (inactive)
same,GI50,[48],69.8 µM (inactive)
same,GI50,[49],> 100 µM (inactive)
same,GI50,[50],65.9 µM (inactive)
same,GI50,[51],> 100 µM (inactive)
same,GI50,[53],52.7 µM (inactive)

# Source: ChEMBL document CHEMBL1201862, “PubChem BioAssay data set” (2004)
